Patent US10758534B2 (Vertex Pharmaceuticals Incorporated, priority 2014, dated 2020)

biological target: T1, F508del (Homo sapiens, UniProt P13569, DEL508-508); experiment: Protocol 1: membrane potential optical assay (FLIPR III, voltage sensing dye), identification of potentiator compounds; format: cell-based; conditions: Table 3, compounds of Table 1
T1 construct: expressed in transfected cells
In short: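 NIH 3T3 fibroblasts stably expressing F508del were cultured at 27° C for 24 hrs for temperature correction, then treated with compounds or DMSO and loaded with a voltage-sensing redistribution dye. Forskolin added with a Cl⁻ gradient activated the channel; membrane-potential fluorescence on FLIPR III reported increased gating.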

T1 sequence (P13569 with tags, fused parts or gaps DEL508-508): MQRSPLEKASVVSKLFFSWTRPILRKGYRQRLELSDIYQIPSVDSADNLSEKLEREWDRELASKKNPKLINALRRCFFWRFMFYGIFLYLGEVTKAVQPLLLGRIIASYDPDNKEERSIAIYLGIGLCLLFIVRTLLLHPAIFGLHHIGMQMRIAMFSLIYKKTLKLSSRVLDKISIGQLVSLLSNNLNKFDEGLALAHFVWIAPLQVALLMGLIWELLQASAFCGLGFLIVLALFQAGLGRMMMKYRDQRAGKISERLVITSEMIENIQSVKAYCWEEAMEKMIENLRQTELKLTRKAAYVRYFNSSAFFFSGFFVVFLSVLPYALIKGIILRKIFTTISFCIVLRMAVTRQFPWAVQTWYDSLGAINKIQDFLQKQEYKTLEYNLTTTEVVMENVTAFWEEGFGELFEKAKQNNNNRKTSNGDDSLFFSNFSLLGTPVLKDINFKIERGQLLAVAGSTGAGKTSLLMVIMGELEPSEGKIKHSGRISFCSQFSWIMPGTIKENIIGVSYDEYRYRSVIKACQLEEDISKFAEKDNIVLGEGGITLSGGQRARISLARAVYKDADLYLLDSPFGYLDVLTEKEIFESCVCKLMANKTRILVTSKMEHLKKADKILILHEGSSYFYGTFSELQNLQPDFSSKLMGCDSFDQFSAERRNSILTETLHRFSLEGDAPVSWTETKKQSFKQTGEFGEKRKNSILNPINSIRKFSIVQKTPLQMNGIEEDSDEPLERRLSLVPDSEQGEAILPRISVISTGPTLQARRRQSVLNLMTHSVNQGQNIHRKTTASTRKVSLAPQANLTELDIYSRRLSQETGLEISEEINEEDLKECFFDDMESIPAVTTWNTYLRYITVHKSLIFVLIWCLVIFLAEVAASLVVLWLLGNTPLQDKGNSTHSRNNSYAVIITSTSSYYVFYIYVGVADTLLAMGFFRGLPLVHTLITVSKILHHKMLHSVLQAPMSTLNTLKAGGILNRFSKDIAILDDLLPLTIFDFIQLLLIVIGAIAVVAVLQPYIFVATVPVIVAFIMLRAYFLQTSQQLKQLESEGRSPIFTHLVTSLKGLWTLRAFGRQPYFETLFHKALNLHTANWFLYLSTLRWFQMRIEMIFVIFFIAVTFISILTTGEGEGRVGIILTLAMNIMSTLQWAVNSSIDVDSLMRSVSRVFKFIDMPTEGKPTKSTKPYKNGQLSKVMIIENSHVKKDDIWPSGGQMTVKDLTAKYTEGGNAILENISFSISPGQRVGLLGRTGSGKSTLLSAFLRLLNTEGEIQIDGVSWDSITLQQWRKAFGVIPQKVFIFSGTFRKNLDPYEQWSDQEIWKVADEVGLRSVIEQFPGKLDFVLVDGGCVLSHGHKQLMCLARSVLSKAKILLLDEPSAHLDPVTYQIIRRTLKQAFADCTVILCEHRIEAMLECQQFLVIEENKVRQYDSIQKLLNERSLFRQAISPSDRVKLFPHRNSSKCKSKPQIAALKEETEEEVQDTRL

Q: Which EC30 does the source give for `Cc1cc(OC(C)C)ncc1-c1ccc(C(=O)NS(=O)(=O)c2cccc(N)n2)c(N2[C@H](C)CC[C@@H]2C)n1` [Compound 1514, N-[(6-amino-2-pyridyl)sulfonyl]-2-[(2R,5S)-2,5-dimethylpyrrolidin-1-yl]-6-(6-isopropoxy-4-methyl-3-pyridyl)pyridine-3-carboxamide] here?
A: +++ (“+++” means <3 uM)

Q: How did the EC30 turn out when `CC1CN(c2nc(-c3ccc(C(C)C)nc3)ccc2C(=O)NS(=O)(=O)c2cccc(N)n2)C(C)(C)C1` (stereo not shown) [Compound 896, N-[(6-amino-2-pyridyl)sulfonyl]-6-(6-isopropyl-3-pyridyl)-2-(2,2,4-trimethylpyrrolidin-1-yl)pyridine-3-carboxamide] was run?
A: +++ (“+++” means <3 uM)

Q: For `C[C@@H]1CN(c2nc(-c3cccc(C#N)c3)ccc2C(=O)NS(=O)(=O)c2cccnc2N)C(C)(C)C1` [Compound 1824, N-[(2-amino-3-pyridyl)sulfonyl]-6-(3-cyanophenyl)-2-[(4S)-2,2,4-trimethylpyrrolidin-1-yl]pyridine-3-carboxamide], which EC30 is on record?
A: +++ (“+++” means <3 uM)

Q: For `CC1CN(c2nc(-c3cnn(C(C)C)c3)ccc2C(=O)NS(=O)(=O)c2cccc(N)n2)C(C)(C)C1` (stereo not shown) [Compound 1067, N-[(6-amino-2-pyridyl)sulfonyl]-6-(1-isopropylpyrazol-4-yl)-2-(2,2,4-trimethylpyrrolidin-1-yl)pyridine-3-carboxamide], which EC30 is on record?
A: +++ (“+++” means <3 uM)

Q: With `C[C@@H]1CN(c2nc(C3=CN(C(=O)OC(C)(C)C)CC3)ccc2C(=O)NS(=O)(=O)c2cccc(N)n2)C(C)(C)C1` [Compound 1684, tert-butyl 4-[5-[(6-amino-2-pyridyl)sulfonylcarbamoyl]-6-[(4S)-2,2,4-trimethylpyrrolidin-1-yl]-2-pyridyl]-2,3-dihydropyrrole-1-carboxylate] as the molecule, how does the EC30 read?
A: +++ (“+++” means <3 uM)

Q: With `CC1CN(c2ncc(-c3cccc(OC4CCCC4)c3)cc2C(=O)NS(=O)(=O)c2cccc(N)n2)C(C)(C)C1` (stereo not shown) [Compound 1918, N-[(6-amino-2-pyridyl)sulfonyl]-5-[3-(cyclopentoxy)phenyl]-2-(2,2,4-trimethylpyrrolidin-1-yl)pyridine-3-carboxamide] as the molecule, how does the EC30 read?
A: +++ (“+++” means <3 uM)

Q: How did the EC30 turn out when `CCOc1cccc2c1CN(Cc1c(C)cc(C)cc1C)C2(C)C(=O)NS(=O)(=O)c1cccnc1` (stereo not shown) [Compound 1669, 4-ethoxy-1-methyl-N-(3-pyridylsulfonyl)-2-[(2,4,6-trimethylphenyl)methyl]isoindoline-1-carboxamide] was run?
A: +++ (“+++” means <3 uM)

Q: For `Cc1cc(-c2ccc(C(=O)NS(=O)(=O)c3cccc(N)n3)c(N3C[C@@H](C)CC3(C)C)n2)ccc1F` [Compound 1930, N-[(6-amino-2-pyridyl)sulfonyl]-6-(4-fluoro-3-methyl-phenyl)-2-[(4S)-2,2,4-trimethylpyrrolidin-1-yl]pyridine-3-carboxamide], which EC30 is on record?
A: +++ (“+++” means <3 uM)

Q: For `COc1cc(F)c(-c2ccc(C(=O)NS(=O)(=O)c3ccc[nH]c3=O)c(N3C[C@@H](C)CC3(C)C)n2)cc1F` [Compound 1913, 6-(2,5-difluoro-4-methoxy-phenyl)-N-[(2-oxo-1H-pyridin-3-yl)sulfonyl]-2-[(4S)-2,2,4-trimethylpyrrolidin-1-yl]pyridine-3-carboxamide], which EC30 is on record?
A: +++ (“+++” means <3 uM)

Q: `CC(C)COc1cc(F)cc(-c2ccc(C(=O)NS(=O)(=O)c3cccc(N)n3)c(C3=CC(C)(C)OC(C)(C)C3)n2)c1` [Compound 1368, N-[(6-amino-2-pyridyl)sulfonyl]-6-(3-fluoro-5-isobutoxy-phenyl)-2-(2,2,6,6-tetramethyl-3H-pyran-4-yl)pyridine-3-carboxamide] was tested. Which EC30 did it give?
A: +++ (“+++” means <3 uM)

Q: For `CC1(C)CN(c2ncc(C(F)(F)F)cc2C(=O)NS(=O)(=O)c2cccc(N)n2)C(C)(C)C1` [Compound 1638, N-[(6-amino-2-pyridyl)sulfonyl]-2-(2,2,4,4-tetramethylpyrrolidin-1-yl)-5-(trifluoromethyl)pyridine-3-carboxamide], which EC30 is on record?
A: +++ (“+++” means <3 uM)

Q: For `Cc1ccc(-c2nc3c(cc2C(=O)NS(=O)(=O)c2ccc(N)cc2)CCCC3(C)C)cc1` [Compound 1307, N-(4-aminophenyl)sulfonyl-8,8-dimethyl-2-(p-tolyl)-6,7-dihydro-5H-quinoline-3-carboxamide], which EC30 is on record?
A: ++ (“++” means between 3 uM and 10 uM)

Q: With `CC(C)COc1cc(F)cc(-c2ccc(C(=O)NS(=O)(=O)c3ccn[nH]3)c(N3CCC(C)(C)C3C)n2)c1` (stereo not shown) [Compound 952, 6-(3-fluoro-5-isobutoxy-phenyl)-N-(1H-pyrazol-5-ylsulfonyl)-2-(2,3,3-trimethylpyrrolidin-1-yl)pyridine-3-carboxamide] as the molecule, how does the EC30 read?
A: +++ (“+++” means <3 uM)

Q: `CC(C)COc1cc(F)cc(-c2ccc(C(=O)NS(=O)(=O)N3CCCC(O)C3)c(N3C[C@@H](C)CC3(C)C)n2)c1` (stereo partly drawn) [Compound 1608, 6-(3-fluoro-5-isobutoxy-phenyl)-N-[(3-hydroxy-1-piperidyl)sulfonyl]-2-[(4S)-2,2,4-trimethylpyrrolidin-1-yl]pyridine-3-carboxamide] was tested. Which EC30 did it give?
A: +++ (“+++” means <3 uM)

Q: For `Cc1cc(C(=O)NS(=O)(=O)c2cccc(N)n2)c(N2CC(C)CC2(C)C)nc1-c1ccc(OC(C)C)nc1` (stereo not shown) [Compound 995, N-[(6-amino-2-pyridyl)sulfonyl]-6-(6-isopropoxy-3-pyridyl)-5-methyl-2-(2,2,4-trimethylpyrrolidin-1-yl)pyridine-3-carboxamide], which EC30 is on record?
A: +++ (“+++” means <3 uM)

Q: For `CCOC1CCN(c2nc(-c3cc(F)cc(OCC(C)C)c3)ccc2C(=O)NS(=O)(=O)c2ccn[nH]2)CC1` [Compound 1155, 2-(4-ethoxy-1-piperidyl)-6-(3-fluoro-5-isobutoxy-phenyl)-N-(1H-pyrazol-5-ylsulfonyl)pyridine-3-carboxamide], which EC30 is on record?
A: ++ (“++” means between 3 uM and 10 uM)

Q: How did the EC30 turn out when `CC(C)COc1cc(F)cc(-c2ccc(C(=O)NS(=O)(=O)c3cccc(N)n3)c(OC(C)C3CCC3)n2)c1` (stereo not shown) [Compound 1238, N-[(6-amino-2-pyridyl)sulfonyl]-2-(1-cyclobutylethoxy)-6-(3-fluoro-5-isobutoxy-phenyl)pyridine-3-carboxamide] was run?
A: +++ (“+++” means <3 uM)

Q: With `CC(C)Oc1ccc(-c2ccc(C(=O)NS(=O)(=O)c3cccc(N)n3)c(N3CCCCC3C)n2)cn1` (stereo not shown) [Compound 1182, N-[(6-amino-2-pyridyl)sulfonyl]-6-(6-isopropoxy-3-pyridyl)-2-(2-methyl-1-piperidyl)pyridine-3-carboxamide] as the molecule, how does the EC30 read?
A: ++ (“++” means between 3 uM and 10 uM)

Q: How did the EC30 turn out when `Cc1cc(C)c(Oc2nc(-c3ccccc3Cl)ccc2C(=O)NS(=O)(=O)c2ccc[nH]c2=O)c(C)c1` [Compound 877, 6-(2-chlorophenyl)-N-[(2-oxo-1H-pyridin-3-yl)sulfonyl]-2-(2,4,6-trimethylphenoxy)pyridine-3-carboxamide] was run?
A: +++ (“+++” means <3 uM)

Q: `CC(C)Oc1ccc(-c2ccc(C(=O)NS(=O)(=O)c3cccc(N)n3)c(N3C(C)CC(C)C3C)n2)cn1` (stereo not shown) [Compound 925, N-[(6-amino-2-pyridyl)sulfonyl]-6-(6-isopropoxy-3-pyridyl)-2-(2,3,5-trimethylpyrrolidin-1-yl)pyridine-3-carboxamide] was tested. Which EC30 did it give?
A: +++ (“+++” means <3 uM)

Q: `CCN(CC)c1cccc(-c2ccc(C(=O)NS(=O)(=O)c3cccnc3N)c(N3C[C@@H](C)CC3(C)C)n2)n1` [Compound 1845, N-[(2-amino-3-pyridyl)sulfonyl]-6-[6-(diethylamino)-2-pyridyl]-2-[(4S)-2,2,4-trimethylpyrrolidin-1-yl]pyridine-3-carboxamide] was tested. Which EC30 did it give?
A: +++ (“+++” means <3 uM)

Q: With `CCOc1cc(C)cc(-c2ccc(C(=O)NS(=O)(=O)c3ccc[nH]c3=O)c(Oc3c(C)cc(C)cc3C)n2)n1` [Compound 1768, 6-(6-ethoxy-4-methyl-2-pyridyl)-N-[(2-oxo-1H-pyridin-3-yl)sulfonyl]-2-(2,4,6-trimethylphenoxy)pyridine-3-carboxamide] as the molecule, how does the EC30 read?
A: ++ (“++” means between 3 uM and 10 uM)

Q: How did the EC30 turn out when `CC(C)COc1cc(F)cc(-c2ccc(C(=O)NS(=O)(=O)c3ccn[nH]3)c(N3CCCC34CCC4)n2)c1` [Compound 1282, 2-(8-azaspiro[3.4]octan-8-yl)-6-(3-fluoro-5-isobutoxy-phenyl)-N-(1H-pyrazol-5-ylsulfonyl)pyridine-3-carboxamide] was run?
A: +++ (“+++” means <3 uM)

Q: `COC[C@H]1C[C@@H]1c1ccc(C(=O)NS(=O)(=O)c2cccc(N)n2)c(N2C[C@@H](C)CC2(C)C)n1` [Compound 1575, N-[(6-amino-2-pyridyl)sulfonyl]-6-[(1S,2S)-2-(methoxymethyl)cyclopropyl]-2-[(4S)-2,2,4-trimethylpyrrolidin-1-yl]pyridine-3-carboxamide] was tested. Which EC30 did it give?
A: ++ (“++” means between 3 uM and 10 uM)

Q: With `Cc1cc(OCC(C)C)nc(-c2ccc(C(=O)NS(=O)(=O)c3cccc(N)n3)c(N3C[C@@H](C)CC3(C)C)n2)c1` [Compound 1656, N-[(6-amino-2-pyridyl)sulfonyl]-6-(6-isobutoxy-4-methyl-2-pyridyl)-2-[(4S)-2,2,4-trimethylpyrrolidin-1-yl]pyridine-3-carboxamide] as the molecule, how does the EC30 read?
A: +++ (“+++” means <3 uM)

Q: With `CC(C)COc1cccc(-c2ccc(C(=O)NS(=O)(=O)c3cccc(N)n3)c(N3C[C@@H](C)CC3(C)C)n2)c1` [Compound 1969, N-[(6-amino-2-pyridyl)sulfonyl]-6-(3-isobutoxyphenyl)-2-[(4S)-2,2,4-trimethylpyrrolidin-1-yl]pyridine-3-carboxamide] as the molecule, how does the EC30 read?
A: +++ (“+++” means <3 uM)

Q: Which EC30 does the source give for `Cc1cc(C)c(Oc2nc(C3CCC(F)(F)CC3)ccc2C(=O)NS(=O)(=O)c2ccc[nH]c2=O)c(C)c1` [Compound 1329, 6-(4,4-difluorocyclohexyl)-N-[(2-oxo-1H-pyridin-3-yl)sulfonyl]-2-(2,4,6-trimethylphenoxy)pyridine-3-carboxamide] here?
A: ++ (“++” means between 3 uM and 10 uM)

Q: For `CC(C)c1ccc(-c2ccc(C(=O)NS(=O)(=O)c3cccc(N)n3)c(N3[C@H](C)CC[C@@H]3C)n2)cc1` [Compound 1343, N-[(6-amino-2-pyridyl)sulfonyl]-2-[(2S,5R)-2,5-dimethylpyrrolidin-1-yl]-6-(4-isopropylphenyl)pyridine-3-carboxamide], which EC30 is on record?
A: +++ (“+++” means <3 uM)
